Experimental data taken from patent US5283361A, “N-hydroxy-N-[3-[2-(halophenylthio)phenyl]prop-2-enyl]ureas as lipoxygenase inhibitors” (Eli Lilly and Company, priority 1992, dated 1994).

Key:
5-LO [1] = experiment: In vivo ovalbumin-induced increase in intratracheal pressure in passively sensitized guinea pigs (Inhibition of 5-LO); parameters: species or system guinea pig; conditions: OA-induced increase in tracheal pressure; for Inhibition of 5-LO In Vivo Percent Inhibition (dose of 10 mg/kg): dose of 10 mg/kg (footnote a), po, 2 hr.
Procedure: Male Hartley guinea pigs (350-500 g) were passively sensitized against ovalbumin by i.p. administration of 0.3 ml of antiserum 2 days preceeding the experiment. Hyperimmune serum was prepared from actively sensitizing male guinea pigs conditioned with 2 mg of ovalbumin in 50% Complete Freund's Adjuvant i.p. on days 1 and 5. On day 21, the animals were bled and the serum collected and stored at -20° C. On the day of the experiment the passively sensitized guinea pigs were anesthetized with 35 to 40 mg/kg of pentobarbital sodium given i.p. The right jugular vein was cannulated with Tygon microbore tubing (o.d.=03) connected to a syringe for administration of selected drugs. Blood pressure was measured with a Statham pressure transducer connected to a Tygon catheter placed in the left carotid artery. The trachea was cannulated and each animal was ventilated with room air by means of a Harvard rodent respirator set to deliver a tidal volume of 1 ml/100 g body weight with a rate of 60 breaths/minute. Succinylcholine (5 mg/kg) was given i.v. to suppress spontaneous respiration. Intratracheal pressure, an index of total pulmonary resistance, was measured with a Statham pressure transducer connected to a T-tube on the tracheal cannula. […] Body temperature was maintained within normal limits by means of a Deltaphase isothermal pad. Prior to surgery, test compound or vehicle (PEG 400) was administered to each guinea pig by oral gavage and OA challenge was at designated times following oral dosing. The animals were pretreated i.v. with pyrilamine (5 mg/kg), propranolol (1 mg/kg) and indomethacin (10 mg/kg) 5 minutes prior to the OA challenge. OA-induced increase in tracheal pressure was expressed as a percentage of the maximal pressure obtained by clamping the trachea with a hemistat. To determine the effect of each drug, a % inhibition value was calculated from the vehicle and drug treated animals at each concentration tested.

5-LO [2] = experiment: In vitro antigen (ovalbumin)-induced contraction of sensitized guinea pig tracheal strips, Schultz-Dale reaction (Inhibition of 5-LO); format: cell-based; conditions: Cavia porcellus, antigen (OA) 30 ng/ml, 30 min preincubation, with indomethacin 5 μM and pyrilamine 10 μM
Procedure: Male, Hartley strain guinea-pigs (200-250 g) were actively sensitized by three injections of ovalbumin (OA, 10 mg/kg). The OA was administered intraperitoneally on Days 1 and 3 and subcutaneously on Day 5. In vitro experiments were performed 21-25 days later.
On the day of the experiment, guinea pigs were killed by asphyxiation with CO2 and the tracheas removed, cleaned of surrounding connective tissue and cut into spiral strips. Each strip was divided in half for paired experiments. Tissues were placed in 10 ml jacketed tissue baths maintained at 37° C. and attached with cotton thread to Grass force-displacement transducers (FT03C). […] Tracheal strips were bathed in modified Krebs' solution of the following composition (millimolar) NaCl, 118.2;KCl, 4.6; CaCl2.2H2 O, 2.5; MgSO4.7H2 O, 1.2; NaHCO3,24.8; KH2 PO4, 1.0; and dextrose, 10.0. The buffer contained indomethacin (5 μM) which potentiated the contractions of the cysteinyl leukotriene (LT) by removing the influence of cyclooxygenase products. The tissue baths were aerated with 95% O2 :5% CO2. Tracheal strips were placed under a resting tension of 2 g, and the tissues were allowed a minimal stabilization period of 60 minutes before undergoing experimentation. Bath fluid was changed at 15 minute intervals during the stabilization period.
Cumulative concentration-response curves were obtained from tracheal strips by increasing the agonist concentration in the organ bath by half-log increments while the previous concentration remained in contact with the tissues (van Rossum, Arch. Int. Pharmacodyn. Ther., 143, 299-330 (1963)). Agonist concentration was increased after reaching the plateau of the contraction elicited by the preceeding concentration. One concentration-response curve was obtained from each tissue. To minimize variability between tissues, contractile responses were expressed as a percentage of the maximal response obtained with carbachol (10 μM), added to the bath at the end of the concentration-response curve. Initially, tissues were challenged with carbachol (10 μM) following the 60 minute stabilization period to insure tissue viability. After recording the maximal response to the initial carbachol challenge, the tissues were washed and reequilibrated for 60 minutes before starting the experimental protocol.
To evaluate the effects of novel 5-lipoxygenase inhibitors in the Schultz-Dale reaction, each compound was incubated with the tissues 30 minutes before starting the curves. Vehicle (DMSO) was given to the paired control tissue. Pyrilamine (10 μM) was added to all baths at this time to block the actions of released histamine. Responses obtained at the antigen concentration of 30 ng/ml were recorded in the absence and presence of drug and percent inhibition was calculated for each pair of tissues. IC50 valves were determined by linear regression.

| Compound | Inhibition of 5-LO In Vivo Percent Inhibition at 30 mg/kg, po, 2 hr. (5-LO [1]) [%] | IC50 (5-LO [2]) [nM] | Inhibition of 5-LO In Vivo Percent Inhibition (dose of 10 mg/kg) (5-LO [1]) [%] |
| --- | --- | --- | --- |
| NC(=O)N(O)C/C=C/c1c(F)cccc1Sc1ccc(F)cc1 [Example 1, N-hydroxy-N-[3-[2-(4-fluorophenylthio)-6-fluorophenyl]-prop-2-enyl]urea] | 97 | 50 | – |
| NC(=O)N(O)C/C=C/c1ccccc1Sc1ccc(F)cc1 [Example 2, N-hydroxy-N-[3-[2-(4-fluorphenylthio)phenyl]prop-2-enyl]urea] | 96 | 100 | – |
| NC(=O)N(O)C/C=C/c1ccc(F)cc1Sc1ccc(F)cc1 [Example 3, N-hydroxy-N-[3-[2-(4-fluorophenylthio)-4-fluorophenyl]prop-2-enyl]urea] | – | 190 | 43 |
| NC(=O)N(O)C/C=C/c1cc(F)ccc1Sc1ccc(F)cc1 [Example 4, N-hydroxy-N-[3-[2-(4-fluorophenylthio)-5-fluorophenyl]prop-2-enyl]urea] | 52 | 230 | – |
| NC(=O)N(O)C/C=C/c1ccccc1Sc1ccc(Cl)cc1 [Example 5, N-hydroxy-N-[3-[2-(4-chlorophenylthio)phenyl]prop-2-enyl]urea] | 95 | 140 | – |
| NC(=O)N(O)C/C=C/c1cccc(F)c1Sc1ccc(F)cc1 [Example 6, N-hydroxy-N-[3-[2-(4-fluorophenylthio)-3-fluorophenyl]prop-2-enyl]urea] | 81 | 130 | – |
| NC(=O)N(O)C/C=C/c1cccc(F)c1Sc1ccc(Cl)cc1 [Example 7, N-hydroxy-N-[3-[2-(4-chlorophenylthio)-3-fluorophenyl]prop-2-enyl]urea] | – | 90 | 77 |
| NC(=O)N(O)C/C=C/c1c(F)cccc1Sc1ccc(Cl)cc1 [Example 8] | 46 | 130 | – |
